Where a name gives a salt, the structure may show the parent alone.
Tested on: anti-OVA-specific IgG1 and IgG2a subclass antibody production
Assay: Evaluation test of adjuvant activity (overall conclusion from anti-OVA IgG1 and IgG2a production)
Assay type: in vivo, BALB/c mice
Settings: compound 0.256 μmol in 5% αCD-added saline with OVA 5 μg, dorsal-subcutaneous
Experimental: 8-Week-old female BALB/c mice were divided into groups (N=6), and each group was primarily immunized by dorsal-subcutaneous administration of (1) ovalbumin (OVA) (5 μg) dissolved in saline as an antigen (OVA single administration group), (2) OVA 5 μg and Addavax™ (mixed with saline at 1:1) dissolved in saline (Addavax™ administration group) as positive control adjuvant, (3) OVA 5 μg and SZ137 0.256 μmol dissolved or dispersed in 5% α-cyclodextrin (hereinafter to be simply referred to as αCD)-added saline (SZ137 administration group), (4) OVA (5 μg) and SZ138 (0.256 μmol) dissolved or dispersed in 5% αCD-added saline (SZ138 administration group), (5) OVA (5 μg) and SZ142 (0.256 μmol) dissolved or dispersed in 5% αCD-added saline (SZ142 administration group), (6) OVA (5 μg) and SZ144 (0.256 μmol) dissolved or dispersed in 5% αCD-added saline (SZ144 administration group), (7) OVA (5 μg) and SZ145 (0.256 μmol) dissolved or dispersed in 5% αCD-added saline (SZ145 administration group), (8) OVA (5 μg) and SZ146 (0.256 μmol) dissolved or dispersed in 5% αCD-added saline (SZ146 administration group), (9) OVA (5 μg) and SZ147 (0.256 μmol) dissolved or dispersed in 5% αCD-added saline (SZ147 administration group), (10) OVA (5 μg) and SZ148 (0.256 μmol) dissolved or dispersed in 5% αCD-added saline (SZ148 administration group), each per mouse. Two week later, the secondary immunization was carried out by dorsal-subcutaneous administration of solutions or dispersions similar to those of the above-mentioned (1)-(10) again. […]
To a 96 well plate was added 5 μg/ml OVA at 100 µl/well, and the mixture was incubated at 4° C. overnight. After incubation, the mixture was washed three times with 200 μl of PBS-T (PBS (phosphate buffered saline)+0.05% (v/v) Tween 20) per well, and blocked with 100 μl of 5% FCS (fetal calf serum)/PBS solution per well at room temperature for 1-2 hr. Thereafter, the mixture was washed three times with PBS-T (200 μl/well), a diluted serum sample (100 l/well) or the same amount of 5% FCS/PBS solution as a control was added, and the mixture was incubated at 37° C. for 1 hr. To calculate concentration of the antibody, the standard of an anti-OVA-specific IgG1 subclass antibody diluted with 2% FCS/PBS solution was added at 100 ng/ml, 50 ng/ml, 25 ng/ml, 12.5 ng/ml, 6.25 ng/ml, 3.125 ng/ml, 1.56 ng/ml, 0.781 ng/ml, 0.391 ng/ml, 0.195 ng/ml, 0.098 ng/ml, 0 ng/ml, per 1 well. When an anti-OVA-specific IgG2a subclass antibody was measured, the standard of an anti-OVA-specific IgG2a subclass antibody was added at 50 ng/ml, 25 ng/ml, 12.5 ng/ml, 6.25 ng/ml, 3.125 ng/ml, 1.56 ng/ml, 0.781 ng/ml, 0.391 ng/ml, 0.195 ng/ml, 0.098 ng/ml, 0.049 ng/ml, 0 ng/ml, per 1 well. Thereafter, similar to the samples, the mixture was washed five times with PBS-T (200 μl/well), a diluted biotinylated anti-mouse IgG1 antibody and IgG2a antibody were added (100 μl/well), and the mixture was incubated at 37° C. for 45 min. Thereafter, the mixture was washed five times with PBS-T (200 μl/well), a diluted anti-biotin-HRP antibody was added (100 μl/well), and the mixture was incubated at 37° C. for another 30 min. Thereafter, the mixture was washed five times with PBS-T (200 μl/well), TMB substrate solution was added (100 μl/well), and the mixture was incubated at room temperature for 10-15 min. Thereafter, a reaction quenching liquid (2N sulfuric acid solution) was added (50 l/well) to discontinue a color developing reaction, and the absorbance (OD Value=450 nm) was measured by a microplate reader. A standard curve was drawn from the measured OD values, and the concentration was calculated. […]

[1] = conclusion from IgG1/IgG2a after primary immunization
[2] = conclusion from IgG1/IgG2a after secondary immunization

SMILES	adjuvant activity [1]	adjuvant activity [2]
CCCCCCCCCCCCCCCCCC(=O)N[C@@H](CCCCN)C(=O)NCCCCCCCCCCCC.Cl [SZ185, N-[(1S)-5-amino-1-(dodecylcarbamoyl)pentyl]octadecanamide hydrochloride]	have an adjuvant activity	have an adjuvant activity
CCCCCCCCCCCCNC(=O)[C@H](CCCNC(=N)N)NC(=O)OCCCCCCCCCCCC.Cl [SZ187, dodecyl N-[(1S)-1-(dodecylcarbamoyl)-4-guanidino-butyl]carbamate hydrochloride]	have an adjuvant activity	have an adjuvant activity
CCCCCCCCCCCCCCCCOC(=O)N[C@@H](CCCCN)C(=O)NCCCCCCCC.Cl [SZ188, hexadecyl N-[(1S)-5-amino-1-(octylcarbamoyl)pentyl]carbamate hydrochloride]	have an adjuvant activity	have an adjuvant activity
CCCCCCCCCCCCCCCCOC(=O)N[C@@H](CCCCN)C(=O)NCCCCCCCCCCCC.Cl [SZ189, hexadecyl N-[(1S)-5-amino-1-(dodecylcarbamoyl)pentyl]carbamate hydrochloride]	have an adjuvant activity	have an adjuvant activity
CCCCCCCCCCCCCCCCNC(=O)NCCCCNC(=N)N.Cl [SZ190, 1-(4-guanidinobutyl)-3-hexadecyl-urea hydrochloride]	have an adjuvant activity	have an adjuvant activity
CCCCCCCCCCCCCCCCCC(=O)N[C@H](CCCNC(=N)N)C(=O)NCCCCCCCCCCCC.Cl [SZ191, N-[(1R)-1-(dodecylcarbamoyl)-4-guanidino-butyl]octadecanamide hydrochloride]	have an adjuvant activity	have an adjuvant activity
CCCCCCCCCCCCCCCCNC(=O)N[C@H](CCCNC(=N)N)C(=O)NCCCCCCCCCCCC.Cl [SZ193, (2R)—N-dodecyl-5-guanidino-2-(hexadecylcarbamoylamino)pentanamide hydrochloride]	have an adjuvant activity	have an adjuvant activity
CCCCCCCCCCCCCCCC(=O)N[C@H](CCCCN)C(=O)NCCCCCCCCCCCC.Cl [SZ194, N-[(1R)-5-amino-1-(dodecylcarbamoyl)pentyl]hexadecanamide hydrochloride]	have an adjuvant activity	have an adjuvant activity
CCCCCCCCCCCCCCCCCC(=O)N[C@@H](CC(C)C)C(=O)NCCCCCCCCCCCC [SZ195, N-[(1S)-1-(dodecylcarbamoyl)-3-methyl-butyl]octadecanamide]	have an adjuvant activity	have an adjuvant activity
CCCCCCCCCCCCCCCCCC(=O)N[C@@H](CC(C)C)C(=O)NCCCCCCCC [SZ196, N-[(1S)-3-methyl-1-(octylcarbamoyl)butyl]octadecanamide]	have an adjuvant activity	have an adjuvant activity
CCCCCCCCCCCCCCCCCCCCCC(=O)N[C@@H](CC(C)C)C(=O)NCCCCCCCCCCCC [SZ197, N-[(1S)-1-(dodecylcarbamoyl)-3-methyl-butyl]docosanamide]	have an adjuvant activity	have an adjuvant activity
CCCCCCCCCCCCCCCCCCCCCC(=O)N[C@@H](CC(C)C)C(=O)NCCCCCCCC [SZ198, N-[(1S)-3-methyl-1-(octylcarbamoyl)butyl]docosanamide]	have an adjuvant activity	have an adjuvant activity
CCCCCCCCCCCCCCCC(=O)N[C@@H](CC(C)C)C(=O)NCCCCCCCC [SZ199, N-[(1S)-3-methyl-1-(octylcarbamoyl)butyl]hexadecanamide]	have an adjuvant activity	have an adjuvant activity
CCCCCCCCCCCCCCCCNC(=O)N[C@@H](CC(C)C)C(=O)NCCCCCCCC [SZ201, (2S)-2-(hexadecylcarbamoylamino)-4-methyl-N-octyl-pentanamide]	have an adjuvant activity	have an adjuvant activity
CCCCCCCCCCCCCCCCOC(=O)N[C@@H](CC(C)C)C(=O)NCCCCCCCC [SZ203, hexadecyl N-[(1S)-3-methyl-1-(octylcarbamoyl)butyl]carbamate]	have an adjuvant activity	have an adjuvant activity
CCCCCCCCCCCCCCCCCC(=O)NCC(C)(C)C(=O)NCCCCCCCCCCCC [SZ204, N-[3-(dodecylamino)-2,2-dimethyl-3-oxo-propyl]octadecanamide]	have an adjuvant activity	have an adjuvant activity
CCCCCCCCCCCCCCCCCC(=O)N[C@@H](CCCCNC(=N)N)C(=O)NCCCCCCCCCCCC.Cl [SZ205, N-[(1S)-1-(dodecylcarbamoyl)-5-guanidino-pentyl]octadecanamide hydrochloride]	have an adjuvant activity	have an adjuvant activity
CCCCCCCCCCCCCCCCCC(=O)N[C@@H](CCCCNC(=N)N)C(=O)NCCCCCC.Cl [SZ206, N-[(1S)-1-(hexylcarbamoyl)-5-guanidino-pentyl]octadecanamide hydrochloride]	have an adjuvant activity	have an adjuvant activity
CCCCCCCCCCCCNC(=O)[C@H](CCCNC(=N)N)N(CCCCCCC)CCCCCCC [SZ207, (2S)-2-(diheptylamino)-N-dodecyl-5-guanidino-pentanamide dihydrochloride]	have an adjuvant activity	have an adjuvant activity
CCCCCCCCCCCCCCCCCCCCCC(=O)NCCc1ccncc1.Cl [SZ209, N-[2-(4-pyridyl)ethyl]docosanamide hydrochloride]	have an adjuvant activity	have an adjuvant activity
CCCCCCCCCCCCCCCCNC(=O)N[C@@H](CCCNC(=N)N)C(=O)NCCCCCCCC.Cl [SZ210, (2S)-5-guanidino-2-(hexadecylcarbamoylamino)-N-octyl-pentanamide hydrochloride]	have an adjuvant activity	have an adjuvant activity
CCCCCCCCCCCCCCCCCCNC(=O)N[C@@H](CCCNC(=N)N)C(=O)NCCCCCCCCCCCC.Cl [SZ211, (2S)—N-dodecyl-5-guanidino-2-(octadecylcarbamoylamino)pentanamide hydrochloride]	have an adjuvant activity	have an adjuvant activity
CCCCCCCCCCCCNC(=O)N[C@@H](CCCNC(=N)N)C(=O)NCCCCCCCCCCCC.Cl [SZ212, (2S)—N-dodecyl-2-(dodecylcarbamoylamino)-5-guanidino-pentanamide hydrochloride]	have an adjuvant activity	have an adjuvant activity
CCCCCCCCCCCCCCCCNC(=O)N[C@@H](CCCCN)C(=O)NCCCCCCCC.Cl [SZ213, (2S)-6-amino-2-(hexadecylcarbamoylamino)-N-octyl-hexanamide hydrochloride]	have an adjuvant activity	have an adjuvant activity

— patent US20180311342A1, “IMMUNOSTIMULATING AGENT” (AJINOMOTO CO., INC., priority 2017, published 2018)
